Results published in ChEMBL document CHEMBL5149996, “Structure-Based Optimization and Discovery of M3258, a Specific Inhibitor of the Immunoproteasome Subunit LMP7 (β5i)” (J Med Chem, 2021).

Legend:
[1] = target: T1, Proteasome subunit beta type-8 (Homo sapiens, UniProt P28062); experiment: Inhibition of human 20S immunoproteasome beta-5i subunit using Suc-LLVY-AMC as substrate preincubated for 2 hrs followed by substrate addition and measured after 1 hr by fluorescence intensity assay
T1 sequence (P28062 whole entry): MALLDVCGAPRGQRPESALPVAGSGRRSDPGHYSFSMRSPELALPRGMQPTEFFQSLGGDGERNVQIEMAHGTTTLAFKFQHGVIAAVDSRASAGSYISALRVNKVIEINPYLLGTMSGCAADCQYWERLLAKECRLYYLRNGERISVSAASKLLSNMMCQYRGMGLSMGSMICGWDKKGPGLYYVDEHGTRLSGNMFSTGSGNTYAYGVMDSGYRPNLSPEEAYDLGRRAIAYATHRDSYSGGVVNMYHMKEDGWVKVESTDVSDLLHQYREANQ

Homo sapiens [2] = organism: Homo sapiens; experiment: Selectivity ratio of IC50 for inhibition of 20S proteasome beta5 subunit in human A549 cells to IC50 for inhibition of 20S immunoproteasome beta-5i subunit in human PBMC; assay type: cell-based
[3] = target: T1, Proteasome subunit beta type-8; experiment: Inhibition of 20S immunoproteasome beta-5i subunit in human PBMC using Ac-ANW-luciferin substrate preincubated for 2 hrs followed by substrate addition and measured after 30 mins by luminometric analysis; assay type: cell-based
[4] = target: T2, Proteasome Macropain subunit MB1 (Homo sapiens, UniProt P28074); experiment: Inhibition of 20S proteasome beta5 subunit in human A549 cells using Suc-LLVY-luciferin substrate preincubated for 2 hrs followed by substrate addition and measured after 30 mins by luminometric analysis; assay type: cell-based
T2 sequence (P28074 whole entry): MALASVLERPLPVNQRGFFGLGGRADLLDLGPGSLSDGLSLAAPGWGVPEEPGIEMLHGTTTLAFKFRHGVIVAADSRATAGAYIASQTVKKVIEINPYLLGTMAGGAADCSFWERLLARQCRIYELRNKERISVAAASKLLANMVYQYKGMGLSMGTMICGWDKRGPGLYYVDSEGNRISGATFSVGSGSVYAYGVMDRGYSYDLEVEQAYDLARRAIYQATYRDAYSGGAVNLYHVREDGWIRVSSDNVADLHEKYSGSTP

[5] = target: T2, Proteasome Macropain subunit MB1; experiment: Inhibition of human 20S proteasome beta5 subunit using Suc-LLVY-AMC as substrate preincubated for 2 hrs followed by substrate addition and measured after 1 hr by fluorescence intensity assay
Homo sapiens [6] = organism: Homo sapiens; experiment: Selectivity ratio of IC50 for inhibition of human 20S proteasome beta5 subunit to IC50 for inhibition of human 20S immunoproteasome beta-5i subunit
[7] = Lipophilicity, log P of the compound; assay type: physicochemical; settings: octanol/water
[8] = Clearance in mouse hepatocytes measured per million of cells; assay type: ADME, cell-based, Hepatocyte; settings: read-out: CLH
[9] = Intrinsic clearance in mouse liver microsomes measured per mg protein; assay type: ADME, Microsome; settings: read-out: CLH

Structure (SMILES)	IC50 [1] [nM]	Ratio IC50 (Homo sapiens [2])	IC50 [3] [nM]	IC50 [4] [nM]	IC50 [5] [nM]	Ratio IC50 (Homo sapiens [6])	logP [7]	hepatocyte CLint [8] [µL/min/1e6 cells]	microsomal CLint [9] [µL/min/mg]
COc1cccc2c(C[C@H](NC(=O)Cc3ccccc3)B(O)O)coc12	2.2	24	8.9	222	140	63			
COCCC(=O)N[C@@H](Cc1coc2ccccc12)B(O)O	1.9	23	10.6	241	400	205			
O=C(N[C@@H](Cc1coc2ccccc12)B(O)O)[C@H]1C[C@H]2CC[C@@H]1O2	140				> 30000	> 210			
O=C(N[C@@H](Cc1coc2ccccc12)B(O)O)[C@@H]1CCCO1	190	38	400	15000	24000	128	1.9	99.7	34
O=C(Cc1ccccc1)N[C@@H](C[C@H]1COc2c(Cl)cccc21)B(O)O	610		9670	> 30000	> 30000	> 49			
O=C(Cc1ccccc1)N[C@@H](Cc1c(Cl)oc2ccccc12)B(O)O	200		824	16500	20000	104			
CC(=O)N[C@@H](Cc1coc2ccccc12)B(O)O	18	16	27.1	420	1400	70			
Cc1cccc2c1OC[C@H]2C[C@H](NC(=O)Cc1ccccc1C#N)B(O)O	4.4	> 496	60	> 30000	14000	3150			
O=C(Cc1ccncc1)N[C@@H](Cc1coc2ccccc12)B(O)O	11	36	71	2540	2300	222			
Cc1cccc2c1OC[C@H]2C[C@H](NC(=O)Cc1ccccc1)B(O)O	3.1	262	53	14000	7200	2330			
Cc1ccc(C[C@H](NC(=O)Cc2ccccc2)B(O)O)c(C)c1	130	> 33	896	> 30000	26000	194			
Cc1cccc2c(C[C@H](NC(=O)Cc3ccccc3)B(O)O)coc12	4.5	71	29	2100	1200	276			
N#Cc1ccccc1CC(=O)N[C@@H](Cc1coc2ccccc12)B(O)O	5.2	52	42	2220	1700	334			
O=C(N[C@@H](Cc1coc2ccccc12)B(O)O)[C@@H]1CCOC1	10	123	13.7	1690	4300	410	1.85	26.7	19
Cc1ccc(C[C@H](NC(=O)Cc2ccccc2)B(O)O)cc1C	85	56	434	24500	15000	182			
O=C(Cc1ccccc1)N[C@@H](Cc1ccc(Cl)cc1)B(O)O	38	8.9	983	8750	5600	148			
N#Cc1ccccc1CC(=O)N[C@@H](C[C@@H]1COc2c(Cl)cccc21)B(O)O	2.9	406	51	20900	7400	2570			

Structure (SMILES)	IC50 [1] [nM]	Ratio IC50 (Homo sapiens [2])	IC50 [3] [nM]	IC50 [4] [nM]	IC50 [5] [nM]	Ratio IC50 (Homo sapiens [6])	logP [7]	hepatocyte CLint [8] [µL/min/1e6 cells]	microsomal CLint [9] [µL/min/mg]
O=C(Cc1ccccc1)N[C@@H](C[C@@H]1COc2c(Cl)cccc21)B(O)O	1.8	243	25	6100	2900	1620			
O=C(Cc1ccccc1)N[C@@H](Cc1coc2c(Cl)cccc12)B(O)O	4.1	49	41.5	2060	860	210			
O=C(N[C@@H](Cc1coc2ccccc12)B(O)O)[C@H]1CCOC1	28	54	55	3000	5000	175	2.1		16
Cc1ccc(C[C@H](NC(=O)Cc2ccccc2)B(O)O)cc1	91	14	438	6290	6300	69			
CC(C)C[C@H](NC(=O)Cc1ccccc1)B(O)O	1000	2.1	3300	7000	15000	15			
O=C(N[C@@H](Cc1coc2ccccc12)B(O)O)[C@H]1CCCO1	5.9	20	40	817	930	158	2.1	90.7	48
O=C(Cc1ccccc1)N[C@@H](Cc1coc2c(F)cccc12)B(O)O	3.1	34	22.8	785	530	168			
O=C(Cc1ccccc1)N[C@@H](Cc1cc2ccccc2o1)B(O)O	29	12	824	10100	5000	172			
Cc1c(Cl)ccc2c(C[C@H](NC(=O)Cc3ccccc3)B(O)O)coc12	6.4	44	164	7320	1700	272			
O=C(Cc1ccccc1)N[C@@H](Cc1ccccc1)B(O)O	160	15	643	9560	16000	99			
O=C(N[C@@H](Cc1coc2ccccc12)B(O)O)[C@@H]1C[C@@H]2CC[C@H]1O2	89				15000	173			
O=C(Cc1cnccn1)N[C@@H](Cc1coc2ccccc12)B(O)O	1.9	18	18	328	410	212			
O=C(Cc1ncccn1)N[C@@H](Cc1coc2ccccc12)B(O)O	2.3	13	15.5	204	230	101			
Cc1ccc(C[C@@H](NC(=O)Cc2ccccc2)B(O)O)cc1C	1200	4.2	1410	5900	> 30000	> 25			
O=C(Cc1cccnc1)N[C@@H](Cc1coc2ccccc12)B(O)O	2.3	26	24.7	646	540	232			
COCC(=O)N[C@@H](Cc1coc2ccccc12)B(O)O	6	20	26.7	520	820	137			
O=C(Cn1cccn1)N[C@@H](Cc1coc2ccccc12)B(O)O	3.7	29	31	894	770	212			
